Reference: patent publication US20080299170A1, “Medical Devices and Coatings Therefor” (Aston University, priority 2005, published 2008)
Like-named read-outs stand apart in the source and are kept apart here. Each block holds one compound with its values, some of them ahead of it.

Key:
[1] = molecular target: T1, bovine epidermal transglutaminase (Bos taurus, UniProt A6QP57); settings: Castelhano et al., Bioorg. Chem. (1988) 16, 335-340; cited from earlier work
T1 sequence (A6QP57 1-691): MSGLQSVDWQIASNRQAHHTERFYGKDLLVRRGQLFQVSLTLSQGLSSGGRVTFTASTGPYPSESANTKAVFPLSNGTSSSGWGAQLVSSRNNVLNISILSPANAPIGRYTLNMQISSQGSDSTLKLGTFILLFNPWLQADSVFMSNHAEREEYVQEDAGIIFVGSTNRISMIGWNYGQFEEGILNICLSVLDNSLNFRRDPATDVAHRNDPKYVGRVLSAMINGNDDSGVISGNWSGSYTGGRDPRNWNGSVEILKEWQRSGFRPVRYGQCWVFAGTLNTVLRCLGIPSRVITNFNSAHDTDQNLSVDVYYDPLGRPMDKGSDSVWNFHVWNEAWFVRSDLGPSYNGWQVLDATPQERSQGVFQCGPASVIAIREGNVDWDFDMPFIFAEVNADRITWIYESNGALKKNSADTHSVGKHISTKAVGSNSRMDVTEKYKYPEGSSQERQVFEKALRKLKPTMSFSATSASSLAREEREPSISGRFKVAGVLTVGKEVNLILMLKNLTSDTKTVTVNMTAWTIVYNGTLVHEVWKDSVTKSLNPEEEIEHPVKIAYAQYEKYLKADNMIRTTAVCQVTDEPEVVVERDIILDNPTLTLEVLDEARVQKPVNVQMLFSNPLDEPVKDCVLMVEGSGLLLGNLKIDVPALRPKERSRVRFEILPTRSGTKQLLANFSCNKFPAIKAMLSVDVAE

factor XIIIa [2] = molecular target: T2, factor XIIIa (Homo sapiens, UniProt P00488); assay: factor XIIIa inhibition (IC50); assay type: biochemical; settings: ref [14], unpublished observations
T2 sequence (P00488 39-732 limits assumed): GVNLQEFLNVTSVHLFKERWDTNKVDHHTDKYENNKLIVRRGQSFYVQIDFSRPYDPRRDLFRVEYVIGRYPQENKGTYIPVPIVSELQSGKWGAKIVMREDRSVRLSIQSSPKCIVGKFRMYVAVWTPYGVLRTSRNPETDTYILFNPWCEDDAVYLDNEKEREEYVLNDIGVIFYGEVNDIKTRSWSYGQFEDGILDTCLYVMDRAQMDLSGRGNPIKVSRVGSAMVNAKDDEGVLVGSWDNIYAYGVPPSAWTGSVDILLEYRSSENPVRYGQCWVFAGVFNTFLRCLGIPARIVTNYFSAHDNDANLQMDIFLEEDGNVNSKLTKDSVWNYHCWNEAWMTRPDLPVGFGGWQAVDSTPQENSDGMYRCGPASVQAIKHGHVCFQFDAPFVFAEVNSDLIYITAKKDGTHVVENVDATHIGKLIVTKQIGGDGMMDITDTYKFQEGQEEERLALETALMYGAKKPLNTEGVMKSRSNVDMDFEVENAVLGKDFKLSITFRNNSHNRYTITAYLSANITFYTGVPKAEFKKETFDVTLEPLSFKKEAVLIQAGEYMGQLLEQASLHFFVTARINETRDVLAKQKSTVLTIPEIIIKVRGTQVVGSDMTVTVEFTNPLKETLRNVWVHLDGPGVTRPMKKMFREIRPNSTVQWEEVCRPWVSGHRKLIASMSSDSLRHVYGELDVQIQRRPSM

fibrin clot = assay: stabilized fibrin clot formation; assay type: biochemical
human blood clots = assay: in vitro assay of fibrinolysis (human blood clot lysis); settings: 250 μM compound, human whole blood clot, TPA; for fibrinogen (FITC-fibrinogen) release from clots: FIG. 2; for red blood cell release from the blood clots: absorbance 750 nm, FIG. 1
Experimental: A number of TGase inhibitors show promise for exploitation in therapeutic areas where TGase has been implicated. […] Compounds 1 and 3 were evaluated for stimulation of thrombolysis (human blood clot lysis) and associated release of embedded staphylococci using an in vitro assay of fibrinolysis as shown below.
Fresh human venous blood (1 ml) was collected by venepuncture in 13 mM citrate. After addition of Staphylococcus aureus NCTC 8325 (to 10^6 cfu/ml), tissue plasminogen activator (TPA, to 100 ng/ml) and FITC-labelled fibrinogen (to 10 μg/ml) aqueous solutions of compounds 1 or 3 (to 250 μM) or water (control), the blood was clotted by addition of CaCl2 (to 20 mM) and allowed to cross-link for 1 hr at 37° C. Blood clots were washed three times each in 1 ml sterile phosphate buffered saline (PBS), resuspended in 1 ml PBS containing 10 μg/ml TPA and incubated with shaking at 37° C. Samples of the clot suspending fluid were withdrawn at intervals and measured for red blood cell content (absorbance 750 nm), fibrinolysis (fluorescence) and release of Staphylococcus aureus (by viable counting).

factor XIIIa [3] = molecular target: T2, factor XIIIa; settings: Proof of Principle Studies, ref [10]; cited from earlier work
[4] = test system: femoral artery thrombosis; settings: ref [11]; cited from earlier work
[5] = release of inhibitor from coated polyurethane catheter; assay type: physicochemical; settings: polylactide-glycolide coating, phosphate buffered saline 37° C., over a 336 hour period, FIG. 4
Experimental: Catheter sections (2 cm, polyurethane Venflon, BD […]) were immersed in a solution of compound 3 (10 mg/ml), dissolved in polylactide-glycolide in dichloromethane (256 mg/ml) and allowed to dry in air. Individual sections were placed in 2 ml of phosphate buffered saline at 37° C. with constant shaking. Release of compound 3 was measured by assaying the phosphate buffered saline over a 336 hour period.

thrombus = settings: ref [11]; cited from earlier work

SMILES: O=C(N[C@@H](Cc1ccccc1)C(=O)NCC1CC(Br)=NO1)OCc1ccccc1 (stereo partly drawn) [(S)-1-[(3-Bromo-4,5-dihydro-isoxazol-5-ylmethyl)-carbamoyl]-2-phenyl-ethyl}-carbamic acid benzyl ester]
inhibition of bovine epidermal transglutaminase [1]: inhibitor

IC50 (factor XIIIa [2]): 10 µM
SMILES: C[S+](C)CC(=O)CC[C@H](NC(=O)[C@@H]1CCCN1C(=O)OCc1ccccc1)C(=O)O [Compound 2, N-Benzyloxycarbonyl-L-prolinyl-6-dimethylsulfonium-5-oxo-L-norleucine]

SMILES: C[S+](C)CC(=O)CC[C@H](NC(=O)[C@H](Cc1ccccc1)NC(=O)OCc1ccccc1)C(=O)O [Compound 1, N-benzyloxycarbonyl-L-phenylalanyl-6-dimethylsulfonium-5-oxo-L-norleucine]
inhibition of stabilized fibrin clot formation (fibrin clot): inhibit stabilized fibrin clot formation
fibrinogen (FITC-fibrinogen) release from clots (human blood clots): greatly increased
red blood cell release from the blood clots (human blood clots): increased
IC50 (factor XIIIa [3]): 30 µM
IC50 (factor XIIIa [2]): 50 µM

release of inhibitor from a coated catheter [5]: prolonged release
SMILES: CC(=O)CSc1n(C)cc[n+]1C [Compound 3]
fibrinogen (FITC-fibrinogen) release from clots (human blood clots): greatly increased
red blood cell release from the blood clots (human blood clots): increased
IC50 (factor XIIIa [3]): 50 µM
thrombolysis in a rabbit model of femoral artery thrombosis [4]: enhanced thrombolysis
thrombolysis in vitro (thrombus): enhanced thrombolysis
